The numbers were not newly measured in patent US6384213B1, “Process for preparing a pure, pharmacopoeial grade amorphous form of cefuroxime axetil” (Ranbaxy Laboratories Limited, priority 1998, dated 2002), which cites them from elsewhere.

Each structure is given as a SMILES string.

The conditions of data set [1]: amorphous form essentially free from crystalline material, purity at least 95%.
The conditions of data set [2]: amorphous form essentially free from crystalline material, purity at least 95%, compared with crystalline form.

Take `CO/N=C(\C(=O)N[C@@H]1C(=O)N2C(C(=O)OC(C)OC(C)=O)=C(COC(N)=O)CS[C@H]12)c1ccco1` (some centres unmarked) [cefuroxime axetil in amorphous form, cefuroxime axetil]: the chemical stability result in data set [1] is reported as “adequate chemical stability”. The bioavailability entry in data set [2] is “higher bioavailability than the crystalline form”.
